Data published in US20110160262A1, “Method of treating retinal vein occlusion” (SANTEN PHARMACEUTICAL CO., LTD., priority 2005, published 2011).

Assays:
trypsin = trypsin (Homo sapiens, UniProt P07477); settings: known activity; cited from earlier work
[1] = test system: laser-induced choroidal neovascularization; assay: laser-induced choroidal neovascularization in rats; type: in vivo; settings: rat
Text: In order to study the inhibitory effect of compound represented by the general formula [I] or a salt thereof on angiogenesis, the effects of nafamostat, FUT-187 and camostat, which are compounds represented by the general formula [I] or salts thereof, on laser-induced choroidal neovascularization in rats were studied. As a comparative compound, ethyl-4-(6-guanidinohexanoyloxy)benzoate methanesulfonate (hereinafter referred to as “gabexate”) represented by the following formula [III] was used.
A rat was given systemic anesthesia by intramuscular administration of 1 ml/kg of a mixed solution of a 5% (w/v) ketamine hydrochloride injectable solution and a 2% xylazine hydrochloride injectable solution (7:1), and a 0.5% (w/v) tropicamide-0.5% phenylephrine hydrochloride ophthalmic solution was instilled into the eyes to cause mydriasis, and then photocoagulation was carried out with a krypton laser photocoagulation apparatus. The photocoagulation was carried out in a posterior pole portion of ocular fundus at eight spots per eye sparsely by focusing on the retinal deep layer avoiding thick retinal vessels (coagulation conditions: spot size: 100 μm, output: 100 mW, coagulation time: 0.1 sec.). After the photocoagulation, the ocular fundus was photographed, and the site where the laser was irradiated was confirmed.
Nafamostat was dissolved in a 5% (w/v) glucose solution (prepared by dissolving D-glucose in physiological saline) to give a final concentration of 25 mg/ml, and the resulting nafamostat solution was intraperitoneally administered once a day at a dose of 1 ml/kg for 7 days including the day of surgery from the photocoagulation surgery. In the same manner, FUT-187 solutions at 25 mg/ml and 125 mg/ml and a camostat solution at 125 mg/ml were prepared, and each of the solutions was intraperitoneally administered once a day at a dose of 1 ml/kg for 7 days including the day of surgery from the photocoagulation surgery. In a comparative compound administration group, a solution obtained by dissolving gabexate in a glucose solution to give a final concentration of 50 mg/ml was administered in the same manner as above. In a vehicle administration group, a 5% (w/v) glucose solution was administered in the same manner.
On day 7 after photocoagulation, 0.1 ml of a 10% fluorescein solution was injected into the tail vein, and fluorescence fundus photography was carried out. In the fluorescence fundus photography, a spot where fluorescence leakage was not observed (absence of angiogenesis) was judged as negative, and a spot where fluorescence leakage was observed was judged as positive. When there are two photocoagulation sites where a little fluorescence leakage was observed, they were judged as positive (presence of angiogenesis). A neovascularization incidence rate was calculated in accordance with Equation 1. The neovascularization incidence rate was calculated based on the positive spot number relative to the 8 spots irradiated with a laser, and a choroidal neovascularization inhibition rate was calculated in accordance with Equation 2. The number of animals in each administration group is 4 to 7.
Each of nafamostat and FUT-187 was dissolved in a 1% (w/v) methyl cellulose solution to give a final concentration of 20 mg/ml, and the resulting solution was orally administered three times a day at a dose of 5 ml/kg for 7 days including the day of surgery from the photocoagulation surgery. In the same manner, camostat was suspended in a 1% (w/v) methyl cellulose solution to give a final concentration of 20 mg/ml, and the resulting suspension was orally administered three times a day at a dose of 5 ml/kg for 7 days including the day of surgery from the photocoagulation surgery. In a vehicle administration group, a 1% (w/v) methyl cellulose solution was administered in the same manner.
The evaluation was carried out with the same method as described above. The case number in each administration group is 6 to 7. […]

[2] = intraperitoneal administration (Table 1)
[3] = intraperitoneal, 25 mg/kg/day once a day for 7 days, evaluated day 7 after photocoagulation
[4] = oral, 300 mg/kg/day (three times a day) for 7 days, evaluated day 7
[5] = oral, intravitreal and subconjunctival administration (Tables 2 to 4)

SMILES	trypsin inhibitory activity (in words) (trypsin)	choroidal neovascularization inhibitory effect (in words) [1, 2]	Choroidal neovascularization inhibition rate (%) [1, 3]	Choroidal neovascularization inhibition rate (%) ([1]; intraperitoneal, 125 mg/kg/day once a day for 7 days, evaluated day 7 after photocoagulation)	Choroidal neovascularization inhibition rate (%) [1, 4]	choroidal neovascularization inhibitory effect (in words) [1, 5]	Choroidal neovascularization inhibition rate (%) ([1]; intraperitoneal, 50 mg/kg/day once a day for 7 days, evaluated day 7 after photocoagulation)	Choroidal neovascularization inhibition rate (%) ([1]; intravitreal, 10 nmol/eye, immediately after photocoagulation and on day 3, evaluated day 7)	Choroidal neovascularization inhibition rate (%) ([1]; subconjunctival, 100 μg/eye/day once a day, evaluated day 7)
N=C(N)c1ccc2cc(OC(=O)c3ccc(NC4=NCCN4)cc3)ccc2c1 [FUT-187, 6′-amidino-2′-naphthyl-(4-(4,5-dihydro-1H-2-imidazolyl)amino) benzoate dimethanesulfonate]	have the same activity	exhibited a high choroidal neovascularization inhibition rate	40.1%	71.4%	39.5%	exhibits an excellent choroidal neovascularization inhibitory effect			
CCOC(=O)c1ccc(OC(=O)CCCCCNC(=N)N)cc1 [Gabexate, ethyl-4-(6-guanidinohexanoyloxy)benzoate methanesulfonate]	has a trypsin inhibitory activity	did not exhibit a choroidal neovascularization inhibitory effect					−30.2%		
N=C(N)Nc1ccc(C(=O)Oc2ccc3cc(C(=N)N)ccc3c2)cc1 [Nafamostat, 6′-amidino-2′-naphthyl-4-guanidinobenzoate dimethanesulfonate]	have the same activity	exhibited a high choroidal neovascularization inhibition rate	50.5%		32%	exhibits an excellent choroidal neovascularization inhibitory effect		26.5%	51.6%
